Legend:
[1] = isoelectric point; cited from earlier work
[2] = Zeta potential determination (electrophoretic light scattering, Malvern Zetasizer Nano ZSP); type: physicochemical; settings: particles without surface treatment agent, suspension in water, 25° C.
Procedure: Zeta potential can be determined from electrophoretic mobility using the Smoluchowski calculation. The electrophoretic mobility value can be determined at 25° C. by electrophoretic light scattering (ELS), e.g. using a Malvern Zetasizer Nano ZSP system. Such commercially available ELS instrumentation will directly provide zeta potential values. Aqueous suspensions are filled into a folded capillary cell and equilibrated at 25° C. for 120 seconds before measurement. Three measurements are taken per run and each sample is run twice. The average value and the variation between measurements can be reported.
Unless otherwise stated, reference to zeta potential is a reference to the zeta potential of a suspension of the particles in water at neutral pH (pH 7) at standard ambient temperature and pressure (SATP, 25° C. and 100 kPa).
Zetapotential measurements were conducted on a Malvern Zetasizer Nano ZSP system. Zetapotential was determined from the electrophoretic mobility using the Smoluchowski approximation. The samples (without dilution) were filled into a folded capillary cell and equilibrated at 25° C. for 120 s before measurement. Three measurements were taken per run and each sample was run twice. The average value and the variation between measurements were reported.

[3] = Drug loading of nanoparticles on carrier; type: physicochemical; settings: on the PA-MMT carrier (4.6 mg PA/g MMT)
Source text: The drug loading in % w/w is the amount of drug in grams per 100 g of functionalised carrier particles. A high drug loading is beneficial for delivering a sufficient dose to a patient. In embodiments the composite has a drug loading of at least 2, 4, 6, 8, 9, 10, 15, 20, 30, 40 or 50% w/w. In embodiments the composite has a drug loading of no more than 100, 90, 80 or 70% w/w.
The drug loading (% w/w) can also be determined by dissolution testing whereby a known mass of dry drug loaded carrier particles is dissolved in a known volume of dissolution media. […] The concentration of drug in the dissolution media is measured by UV/Vis and/or HPLC spectroscopic methods until it stops increasing with time. The mass of drug present on the known mass of drug loaded carrier particles can thus be estimated and the drug loading in (% w/w) can be calculated.
Nanoparticles of both fenofibrate (FF) and mefenamic acid (MEF) were generated by antisolvent precipitation. An organic solution of FF in ethanol (1 mL, 50 mg/mL) was quickly introduced by Eppendorf pipet to 10 mL antisolvent containing (a) water, (b) an MMT suspension in water (50 mg/mL, equilibrated for >2 hrs) or (c) a protamine-modified MMT suspension in water (50 mg/mL, 4.6-189.9 mg PA/g MMT, equilibrated for >2 hrs). Solutions/suspensions were maintained at 25° C. under rapid agitation (800 rpm) throughout the precipitation process. […]

[4] = Particle size analysis by laser diffraction (Malvern Mastersizer 3000); type: physicochemical; settings: water as dispersion medium
Procedure: Particle size can be determined by laser diffraction, for example using a Malvern Mastersizer 3000.
Particle size measurements were performed by laser diffraction using a Malvern Mastersizer 3000, with water as the dispersion medium. In cases where the particle size was not stable, HPMC and SDS were added to the water dispersant at a concentration of 0.038 mg/mL each to minimise variation between consecutive measurements. Precipitated drug suspensions were diluted by a factor of 5 with water prior to their introduction to the measurement vessel. An MMT control was treated by the conditions used during antisolvent precipitation before measuring its particles size. An obscuration rate of 7-10%, a stir rate of 2300 rpm, a 1 min pre-measurement delay (including 20 sec with 5% sonication power) were the conditions used during all size measurements. A refractive index of 1.55 and an absorption index of 0.01 were used for FF measurements. A refractive index of 1.55 and an absorption index of 0.1 were used for MMT measurements. Four measurements were taken per run and each sample was run twice. The D50 was reported for each size distribution and averaged across all measurements. Measurement variations were also reported.

Row | zeta potential [2] [mV] | drug loading [3] [%] | particle size D50 [4] [μm] | Compound | pI [1]
1 | – | – | – | C[C@H](N)C(=O)O [Alanine] | 6.00
2 | −35.3 | 4.8 | 0.84±0.05 | Cc1cccc(Nc2ccccc2C(=O)O)c1C [mefenamic acid] | –
3 | – | – | – | Avidin [Avidin (glycoprotein)] | 10.5
4 | – | – | – | Galatine B | 5
5 | – | – | – | Gelatine A | 6-9

Source: patent publication US10849989B2, “Isolated composite drug and carrier nanoparticles” (University of Limerick, priority 2016, dated 2020)
